From ChEMBL document CHEMBL3286152, “Development of a fluorometric microplate antiadhesion assay using uropathogenic Escherichia coli and human uroepithelial cells” (J Nat Prod, 2014)
In brackets after ≈: the same amount, converted by molar mass. Activity calls are given as the source filed them. No cut-off for these calls is given here.

Tests used:
Escherichia coli [1] = assay: Inhibition of BacLight Green labeled Escherichia coli adherence to human UEC after 1 hr by flow cytometry analysis; format: functional, organism-based
Escherichia coli [2] = assay: Bactericidal activity against BacLight Green labeled Escherichia coli up to 30 ug/ml; format: ADME, organism-based
Escherichia coli [3] = assay: Induction of morphological changes in BacLight Green labeled Escherichia coli assessed as alteration of fimbriae structure and distribution by fusing fimbriae at 10 ug/ml after 1 hr by transmission electron microscopy analysis; format: functional, organism-based
Escherichia coli [4] = assay: Inhibition of BacLight Green labeled Escherichia coli adherence to human UEC at 0.1 ug/ml after 1 hr by flow cytometry analysis; format: functional, organism-based
Escherichia coli [5] = assay: Inhibition of BacLight Green labeled Escherichia coli adherence to human UEC at 10 ug/ml after 1 hr by scanning electron microscopy analysis; format: functional, organism-based
Escherichia coli [6] = assay: Inhibition of BacLight Green labeled Escherichia coli adherence to human UEC at 1 ug/ml after 1 hr by flow cytometry analysis; format: functional, organism-based
Escherichia coli [7] = assay: Induction of morphological changes in BacLight Green labeled Escherichia coli assessed as decrease of number of fimbriae at 50 ug/ml after 1 hr by transmission electron microscopy analysis; format: functional, organism-based
Escherichia coli [8] = assay: Inhibition of BacLight Green labeled Escherichia coli adherence to human UEC at 50 ug/ml after 1 hr by scanning electron microscopy analysis; format: functional, organism-based

Row | Compound | inhibition (Escherichia coli [1]) | Activity (Escherichia coli [2]) | IC50 (Escherichia coli [1]) | Activity (Escherichia coli [3]) | inhibition (Escherichia coli [4]) | inhibition (Escherichia coli [5]) | inhibition (Escherichia coli [6]) | Activity (Escherichia coli [7]) | inhibition (Escherichia coli [8])
1 | O=C(/C=C/c1ccc(O)c(O)c1)O[C@@H]1C[C@](O)(C(=O)O)C[C@@H](O)[C@H]1O [CHLOROGENIC ACID] | inactive | Non-toxic |  |  |  |  |  |  | 
2 | O=c1c(O)c(-c2cc(O)c(O)c(O)c2)oc2cc(O)cc(O)c12 [MYRICETIN] | Dose-dependent effect | Non-toxic | 0.88 µg/mL (≈ 2.77 µM) | Active | Active | Active |  |  | 
3 | Oc1cc(O)c2c(c1)O[C@@]1(c3ccc(O)c(O)c3)Oc3cc(O)c4c(c3[C@@H]2[C@H]1O)O[C@H](c1ccc(O)c(O)c1)[C@H](O)C4 [PROANTHOCYANIDIN A2] | inactive | Non-toxic |  |  |  |  |  |  | 
4 | Oc1cc(O)c2c(c1)O[C@H](c1ccc(O)c(O)c1)[C@H](O)[C@H]2c1c(O)cc(O)c2c1O[C@H](c1ccc(O)c(O)c1)[C@@H](O)C2 [PROCYANIDIN B1] | Dose-dependent effect | Non-toxic |  |  |  |  | Active |  | 
5 | Oc1cc(O)c2c(c1)O[C@H](c1ccc(O)c(O)c1)[C@H](O)[C@H]2c1c(O)cc(O)c2c1O[C@H](c1ccc(O)c(O)c1)[C@H](O)C2 [PROCYANIDIN B2] | Dose-dependent effect | Non-toxic |  |  |  |  | Active | Active | Active
6 | Oc1cc(O)c2c(c1)O[C@H](c1ccc(O)c(O)c1)[C@H](O)[C@H]2c1c(O)cc(O)c2c1O[C@H](c1ccc(O)c(O)c1)[C@H](O)[C@H]2c1c(O)cc(O)c2c1O[C@H](c1ccc(O)c(O)c1)[C@H](O)C2 [PROCYANIDIN C1] | Dose-dependent effect | Non-toxic |  |  |  |  | Active |  | 
7 | O=c1c(O)c(-c2ccc(O)c(O)c2)oc2cc(O)cc(O)c12 [QUERCETIN] | Dose-dependent effect | Non-toxic | 3.8 µg/mL (≈ 12.6 µM) |  | Active |  |  |  | 
